Like-named read-outs stand apart in the source and are kept apart here.
Tests used:
[1] = tested on: human lung cancer strain NCI-H441; test: NCI-H441 cell proliferation inhibitory activity (CellTiter-Glo, 4 days); format: cell-based; conditions: read-out: NCl-H441 IC50
In short: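 Proliferation was scored by […] measured after the reagent was added to cultures kept at 37°C in 5% carbon dioxide.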

[2] = biological target: GDP-bound KRAS wild-type protein (Homo sapiens, UniProt P01116); test: Binding to KRAS by surface plasmon resonance (SPR), dissociation constant KD
Sequence of GDP-bound KRAS wild-type protein (P01116 1-188 isoform P01116-2): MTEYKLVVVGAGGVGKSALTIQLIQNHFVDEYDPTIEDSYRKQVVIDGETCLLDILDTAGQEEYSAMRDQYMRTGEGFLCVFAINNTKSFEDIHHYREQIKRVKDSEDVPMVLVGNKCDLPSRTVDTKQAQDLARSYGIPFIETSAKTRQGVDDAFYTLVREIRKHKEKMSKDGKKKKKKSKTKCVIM
In short: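 Affinity is measured by surface plasmon resonance at 30°C against captured, GDP-loaded RAS carrying a biotinylated Avi tag. Compounds are titrated by single-cycle kinetics, and KD comes from a 1:1 fit.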

[3] = biological target: GDP-bound NRAS wild-type protein (Homo sapiens, UniProt P01111); test: Binding to NRAS by surface plasmon resonance (SPR), KD and KD ratio to KRAS
Sequence of GDP-bound NRAS wild-type protein (P01111 whole entry): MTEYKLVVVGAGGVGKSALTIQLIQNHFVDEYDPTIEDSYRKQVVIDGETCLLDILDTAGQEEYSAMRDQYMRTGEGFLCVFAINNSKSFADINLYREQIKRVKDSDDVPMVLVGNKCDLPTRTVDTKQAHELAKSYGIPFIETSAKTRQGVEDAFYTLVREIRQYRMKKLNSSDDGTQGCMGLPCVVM
In short: (§1)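 SPR, 30°C: Avi-biotin RAS·GDP captured via Biotin CAPture (~100–300 RU); running buffer HBS pH 7.4, 1 mM DTT, 10 mM MgCl2, 0.01% Tween 20, 10 µM GDP, 4% DMSO. Single-cycle kinetics, 100 µL/min, 75 s injections; 1:1 model → KD.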

HRAS wild-type protein = HRAS wild-type protein (Homo sapiens, UniProt P01112); test: Binding to HRAS by surface plasmon resonance (SPR), KD and KD ratio to KRAS
Sequence of HRAS wild-type protein (P01112 whole entry): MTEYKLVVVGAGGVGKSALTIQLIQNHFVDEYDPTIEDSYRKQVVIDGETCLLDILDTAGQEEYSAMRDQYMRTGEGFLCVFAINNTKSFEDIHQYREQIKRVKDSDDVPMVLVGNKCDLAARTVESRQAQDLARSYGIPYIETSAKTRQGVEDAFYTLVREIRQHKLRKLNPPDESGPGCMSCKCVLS
In short: as §1

[4] = ratio of KD for GDP-bound NRAS wild-type protein to KD for KRAS
[5] = ratio of KD for HRAS wild-type protein to KD for KRAS
[6] = 50% proliferation inhibitory concentration, four days
[7] = Single Cycle Kinetics, 1:1 binding model
[8] = ratio of KD with respect to GDP-bound NRAS wild-type protein to KD with respect to KRAS
[9] = ratio of KD with respect to HRAS wild-type protein to KD with respect to KRAS

Row | Compound | IC50 ([1]; NCI-H441 cells, 4 days) | Kd ([2]; 1:1 binding model) | Kd ([2]; Single Cycle Kinetics) | IC50 [1, 6] | Kd [2, 7] | NRAS /KRAS [3, 4] | HRAS /KRAS (HRAS wild-type protein; [5]) | NRAS /KRAS [3, 8] | HRAS /KRAS (HRAS wild-type protein; [9])
1 | CCO[C@@H]1C[C@H]2C(=O)NC3(CC(C)(C)C3)C(=O)N(C)[C@@H](C3CCCC3)C(=O)N(C)[C@H](C(=O)N(C)CC)CC(=O)N(C)[C@@H]([C@H](C)OC)C(=O)N[C@@H]([C@@H](C)CC)C(=O)N(C3CC3)CC(=O)N(C)[C@H]3C/C=C\CCN(C3=O)[C@@H](Cc3ccc(C(F)(F)F)cc3)C(=O)N(C)CC(=O)N[C@@H](CCc3ccc(C(F)(F)F)c(OC)c3)C(=O)N2C1 [PP3219] | 19.6 nM | – | 0.53 nM | – | – | A (a compound having 10 or more and less than 20 is denoted as A) | A (a compound having 10 or more and less than 20 is denoted as A) | – | –
2 | CCO[C@@H]1C[C@H]2C(=O)NC3(CC(C)(C)C3)C(=O)N(C)[C@@H](C(CC)CC)C(=O)N(C)[C@H](C(=O)N(C)C)CC(=O)N(C)[C@@H](CC3CC3)C(=O)N[C@@H]([C@@H](C)CC)C(=O)N(C)CC(=O)N(C)[C@H]3C/C=C\CCN(C3=O)[C@@H](CC3CCC(F)(F)CC3)C(=O)N(C)CC(=O)N[C@@H](CCc3ccc(C(F)(F)F)c(Cl)c3)C(=O)N2C1 [PP2495] | 17.4 nM | 0.84 nM | – | – | – | A (a compound having 10 or more and less than 20 is denoted as A) | A (a compound having 10 or more and less than 20 is denoted as A) | – | –
3 | CCC[C@H]1C(=O)N[C@@H](C2CCCC2)C(=O)N(C)CC(=O)N(C)[C@H]2C/C=C\CCN(C2=O)[C@@H](Cc2ccc(C(F)(F)F)cc2)C(=O)N(C)CC(=O)N[C@@H](CCc2ccc(C(F)(F)F)c(OC)c2)C(=O)N2CC3(CC3)C[C@H]2C(=O)N(C)C2(CCC2)C(=O)N(C)[C@@H]([C@@H](C)CC)C(=O)N(C)[C@H](C(=O)N(C)C)CC(=O)N1C [PP3315] | 7.2 nM | – | 0.92 nM | – | – | A (a compound having 10 or more and less than 20 is denoted as A) | A (a compound having 10 or more and less than 20 is denoted as A) | – | –
4 | CCOC[C@H]1C(=O)N[C@@H]([C@@H](C)CC)C(=O)N(C)CC(=O)N(C)[C@H]2C/C=C\CCN(C2=O)[C@@H](Cc2ccc(C)cc2)C(=O)N(C)CC(=O)N[C@@H](CCc2ccc(C(F)(F)F)c(OC)c2)C(=O)N2C[C@H](OCC)C[C@H]2C(=O)NC2(CC(C)(C)C2)C(=O)N(C)[C@@H](C2CCCC2)C(=O)N(C)[C@H](C(=O)N(C)CC)CC(=O)N1C [PP2445] | 11.7 nM | 0.14 nM | – | – | – | A (a compound having 10 or more and less than 20 is denoted as A) | B (a compound having 3 or more and less than 10 is denoted as B) | – | –
5 | CCO[C@@H]1C[C@H]2C(=O)NC3(CCC3)C(=O)N(C)[C@@H](C3CCCC3)C(=O)N(C)[C@H](C(=O)N3CCCCC3)CC(=O)N(C)[C@@H](CC)C(=O)N[C@@H]([C@@H](C)CC)C(=O)N(C)CC(=O)N(C)[C@H]3C/C=C\CCN(C3=O)[C@@H](Cc3ccc(C(F)(F)F)cc3)C(=O)N(C)CC(=O)N[C@@H](CCc3cc(F)c(C(F)(F)F)c(F)c3)C(=O)N2C1 [PP1289] | – | – | – | 34.7 nM | 0.17 nM | – | – | AA (a compound having 20 or more is denoted as AA) | A (a compound having 10 or more and less than 20 is denoted as A)
6 | CCC[C@H]1C(=O)N[C@@H]([C@@H](C)CC)C(=O)N(C2CC2)CC(=O)N(C)[C@H]2C/C=C\CCN(C2=O)[C@@H](Cc2ccc(C(F)(F)F)cc2)C(=O)N(C)CC(=O)N[C@@H](CCc2ccc(C(F)(F)F)c(OC)c2)C(=O)N2C[C@H](OCC)C[C@H]2C(=O)OC2(CCC2)C(=O)N(C)[C@@H](C2CCCC2)C(=O)N(C)[C@H](C(=O)N(C)C)CC(=O)N1C [PP3369] | 9.1 nM | – | 0.86 nM | – | – | A (a compound having 10 or more and less than 20 is denoted as A) | A (a compound having 10 or more and less than 20 is denoted as A) | – | –
7 | CCC[C@H]1C(=O)N[C@H]([C@@H](C)CC)C(=O)N2C[C@@H](OC)C[C@H]2C(=O)N(C)[C@H]2C/C=C\CCN(C2=O)[C@@H](Cc2ccc(C)cc2)C(=O)N(C)CC(=O)N[C@@H](CCc2ccc(C(F)(F)F)c(Cl)c2)C(=O)N2C[C@H](OCC)C[C@H]2C(=O)NC2(CCC2)C(=O)N(C)[C@@H](C2CCCC2)C(=O)N(C)[C@H](C(=O)N(C)C)CC(=O)N1C [PP2552] | 30.5 nM | 0.28 nM | – | – | – | A (a compound having 10 or more and less than 20 is denoted as A) | B (a compound having 3 or more and less than 10 is denoted as B) | – | –
8 | CCO[C@@H]1C[C@H]2C(=O)NC3(CC(C)(C)C3)C(=O)N(C)[C@@H](C3CCCC3)C(=O)N(C)[C@H](C(=O)N(C)C)CC(=O)N(C)[C@@H]([C@H](C)OC)C(=O)N[C@@H]([C@@H](C)CC)C(=O)N(C3CC3)CC(=O)N(C)[C@H]3C/C=C\CCN(C3=O)[C@@H](Cc3ccc(C(F)(F)F)cc3)C(=O)N(C)CC(=O)N[C@@H](CCc3ccc(C(F)(F)F)c(OC)c3)C(=O)N2C1 [PP3173] | 33.1 nM | – | 0.57 nM | – | – | B (a compound having 3 or more and less than 10 is denoted as B) | B (a compound having 3 or more and less than 10 is denoted as B) | – | –
9 | CCOC[C@H]1C(=O)N[C@@H]([C@@H](C)CC)C(=O)N2CCC[C@H]2C(=O)N(C)[C@H]2C/C=C\CCN(C2=O)[C@@H](Cc2ccc(C)cc2)C(=O)N(C)CC(=O)N[C@@H](CCc2ccc(C(F)(F)F)c(OC)c2)C(=O)N2C[C@@H](C)C[C@H]2C(=O)NC2(CC(C)(C)C2)C(=O)N(C)[C@@H](C2CCCC2)C(=O)N(C)[C@H](C(=O)N(C)CC)CC(=O)N1C [PP2427] | 36.6 nM | 0.7 nM | – | – | – | AA (a compound having 20 or more is denoted as AA) | A (a compound having 10 or more and less than 20 is denoted as A) | – | –

Now from value to molecule, other results behind:

Row | IC50 ([1]; NCI-H441 cells, 4 days) | Kd ([2]; 1:1 binding model) | Kd ([2]; Single Cycle Kinetics) | IC50 [1, 6] | Kd [2, 7] | Compound | NRAS /KRAS [3, 4] | HRAS /KRAS (HRAS wild-type protein; [5]) | NRAS /KRAS [3, 8] | HRAS /KRAS (HRAS wild-type protein; [9])
10 | 199 nM | 2.4 nM | – | – | – | CCC(CC)[C@H]1C(=O)N(C)[C@H](C(=O)N2CCCCC2)CC(=O)N(C)[C@@H](COC)C(=O)N[C@@H]([C@@H](C)CC)C(=O)N(C)CC(=O)N(C)[C@H]2C/C=C\CCN(C2=O)[C@@H](Cc2ccc(C(F)(F)F)cc2)C(=O)N(C)CC(=O)N[C@@H](CCc2ccc(Cl)c(Cl)c2)C(=O)N2C[C@H](OC(C)C)C[C@H]2C(=O)NC2(CC(C)(C)C2)C(=O)N1C [PP2612] | AA (a compound having 20 or more is denoted as AA) | A (a compound having 10 or more and less than 20 is denoted as A) | – | –
11 | 4.1 nM | 0.09 nM | – | – | – | CCOC[C@H]1C(=O)N[C@@H]([C@@H](C)CC)C(=O)N(C)CC(=O)N(C)[C@H]2C/C=C\CCN(C2=O)[C@@H](Cc2ccc(C)cc2)C(=O)N(C)CC(=O)N[C@@H](CCc2cc(F)c(C(F)(F)F)c(F)c2)C(=O)N2C[C@H](OCC)C[C@H]2C(=O)NC2(CC(C)(C)C2)C(=O)N(C)[C@@H](C2CCCC2)C(=O)N(C)[C@H](C(=O)N(C)CC)CC(=O)N1C [PP2404] | A (a compound having 10 or more and less than 20 is denoted as A) | A (a compound having 10 or more and less than 20 is denoted as A) | – | –
12 | 142 nM | 3.8 nM | – | – | – | CCC(CC)[C@H]1C(=O)N(C)[C@H](C(=O)N(C)C)CC(=O)N(C)[C@@H](COC)C(=O)N[C@@H]([C@@H](C)CC)C(=O)N(C2CC2)CC(=O)N(C)[C@H]2C/C=C\CCN(C2=O)[C@@H](CC2CCC(F)(F)CC2)C(=O)N(C)CC(=O)N[C@@H](CCc2ccc(Cl)c(Cl)c2)C(=O)N2C[C@H](OC(C)C)C[C@H]2C(=O)NC2(CC(C)(C)C2)C(=O)N1C [PP2525] | AA (a compound having 20 or more is denoted as AA) | A (a compound having 10 or more and less than 20 is denoted as A) | – | –
13 | – | – | – | 19.2 nM | 0.2 nM | CCO[C@@H]1C[C@H]2C(=O)NC3(CCC3)C(=O)N(C)[C@@H](C(CC)CC)C(=O)N(C)[C@H](C(=O)N(C)C)CC(=O)N(C)[C@@H](CC)C(=O)N[C@@H]([C@@H](C)CC)C(=O)N(C)CC(=O)N(C)[C@H]3C/C=C\CCN(C3=O)[C@@H](Cc3ccc(C(F)(F)F)cc3)C(=O)N(C)CC(=O)N[C@@H](CCc3cc(F)c(C(F)(F)F)c(F)c3)C(=O)N2C1 [PP1200] | – | – | AA (a compound having 20 or more is denoted as AA) | A (a compound having 10 or more and less than 20 is denoted as A)
14 | 32.3 nM | 0.59 nM | – | – | – | CCO[C@@H]1C[C@H]2C(=O)NC3(CC(C)(C)C3)C(=O)N(C)[C@@H](C(CC)CC)C(=O)N(C)[C@H](C(=O)N(C)C)CC(=O)N(C)[C@@H](COC)C(=O)N[C@@H]([C@@H](C)CC)C(=O)N(C)CC(=O)N(C)[C@H]3C/C=C\CCN(C3=O)[C@@H](CC3CCC(F)(F)CC3)C(=O)N(C)CC(=O)N[C@@H](CCc3ccc(C(F)(F)F)c(Cl)c3)C(=O)N2C1 [PP2444] | A (a compound having 10 or more and less than 20 is denoted as A) | A (a compound having 10 or more and less than 20 is denoted as A) | – | –
15 | 64 nM | 0.77 nM | – | – | – | CCC[C@H]1C(=O)N[C@@H]([C@@H](C)CC)C(=O)N(C2CC2)CC(=O)N(C)[C@H]2C/C=C\CCN(C2=O)[C@@H](Cc2ccc(C(F)F)cc2)C(=O)N(C)CC(=O)N[C@@H](CCc2cc(F)c(C(F)(F)F)c(F)c2)C(=O)N2C[C@H](OC(C)C)C[C@H]2C(=O)NC2(CC(C)(C)C2)C(=O)N(C)[C@@H](C(CC)CC)C(=O)N(C)[C@H](C(=O)N(C)C)CC(=O)N1C [PP2529] | AA (a compound having 20 or more is denoted as AA) | A (a compound having 10 or more and less than 20 is denoted as A) | – | –
